Data taken from ChEMBL document CHEMBL4800727 (2021).

Legend:
[1] = target: Serine/threonine-protein kinase Nek3 (Homo sapiens) (UniProt P51956); assay: NIMA -related kinase 3 Millipore kinase panel; conditions: Compound concentration 10.0 uM
[2] = target: D(1A) dopamine receptor (Homo sapiens) (UniProt P21728); assay: hD1 Cerep panel; conditions: Compound concentration 10.0 uM
[3] = target: Serine/threonine-protein kinase PLK3 (Homo sapiens) (UniProt Q9H4B4); assay: polo-like kinase 3 Millipore kinase panel; conditions: Compound concentration 10.0 uM
[4] = target: Neuropeptide Y receptor type 1 (Homo sapiens) (UniProt P25929); assay: hNPY1 Cerep panel; conditions: Compound concentration 10.0 uM
[5] = target: Serine/threonine-protein kinase Nek2 (Homo sapiens) (UniProt P51955); assay: NIMA -related kinase 2 Millipore kinase panel; conditions: Compound concentration 10.0 uM
[6] = target: Ribosomal protein S6 kinase beta-1 (Homo sapiens) (UniProt P23443); assay: ribosomal protein S6 kinase, 70kDa, polypeptide 1 Millipore kinase panel; conditions: Compound concentration 10.0 uM
[7] = target: Serine/threonine-protein kinase Sgk2 (Homo sapiens) (UniProt Q9HBY8); assay: serum/glucocorticoid regulated kinase 2 Millipore kinase panel; conditions: Compound concentration 10.0 uM
[8] = target: PAS domain-containing serine/threonine-protein kinase (Homo sapiens) (UniProt Q96RG2); assay: PAS domain containing serine/threonine kinase Millipore kinase panel; conditions: Compound concentration 10.0 uM
[9] = target: Type-1 angiotensin II receptor (Homo sapiens) (UniProt P30556); assay: hAT1 Cerep panel; conditions: Compound concentration 10.0 uM
[10] = target: Testis-specific serine/threonine-protein kinase 1 (Homo sapiens) (UniProt Q9BXA7); assay: testis-specific serine kinase 1B Millipore kinase panel; conditions: Compound concentration 10.0 uM
[11] = target: Proto-oncogene tyrosine-protein kinase receptor Ret (Homo sapiens) (UniProt P07949); assay: ret proto-oncogene Millipore kinase panel; conditions: Compound concentration 10.0 uM
[12] = target: Cyclin-dependent kinase 1/cyclin B (Homo sapiens) (UniProt P06493+P14635+Q8WWL7+O95067); assay: cyclin-dependent kinase 1 / clyclinB Millipore kinase panel; assay type: protein-complex assay; conditions: Compound concentration 10.0 uM
[13] = target: Tyrosine-protein kinase FRK (Homo sapiens) (UniProt P42685); assay: fyn-related kinase Millipore kinase panel; conditions: Compound concentration 10.0 uM
[14] = target: Serine/threonine-protein kinase 33 (Homo sapiens) (UniProt Q9BYT3); assay: serine/threonine kinase 33 Millipore kinase panel; conditions: Compound concentration 10.0 uM
[15] = target: Neurotensin receptor type 1 (Homo sapiens) (UniProt P30989); assay: hNT1 Cerep panel; conditions: Compound concentration 10.0 uM
[16] = target: Rhodopsin kinase GRK7 (Homo sapiens) (UniProt Q8WTQ7); assay: G protein-coupled receptor kinase 7 Millipore kinase panel; conditions: Compound concentration 10.0 uM
[17] = target: Serine/threonine-protein kinase mTOR (Homo sapiens) (UniProt P42345); assay: mechanistic target of rapamycin Millipore kinase panel; conditions: Compound concentration 10.0 uM
[18] = target: Serine/threonine-protein kinase MARK2 (Homo sapiens) (UniProt Q7KZI7); assay: MAP/microtubule affinity-regulating kinase 2 Millipore kinase panel; conditions: Compound concentration 10.0 uM
[19] = target: Vasopressin V1a receptor (Homo sapiens) (UniProt P37288); assay: hV1a Cerep panel; conditions: Compound concentration 10.0 uM
[20] = target: 5-hydroxytryptamine receptor 2A (Homo sapiens) (UniProt P28223); assay: h5HT2A Cerep panel; conditions: Compound concentration 10.0 uM
[21] = target: 5-hydroxytryptamine receptor 2C (Homo sapiens, UniProt P28335); assay: GPCRScan assay: inhibition of 5-HT2C; parameters: radioligand conc. used [nm] 1.0 – 2.5, parental cells HEK T
[22] = target: C-C chemokine receptor type 1 (Homo sapiens) (UniProt P32246); assay: hCCR1 Cerep panel; conditions: Compound concentration 10.0 uM
[23] = target: Nociceptin receptor (Homo sapiens) (UniProt P41146); assay: hORL1 Cerep panel; conditions: Compound concentration 10.0 uM
[24] = target: Histamine H1 receptor (Homo sapiens) (UniProt P35367); assay: hH1 Cerep panel; conditions: Compound concentration 10.0 uM
[25] = target: Substance-P receptor (Homo sapiens) (UniProt P25103); assay: hNK1 Cerep panel; conditions: Compound concentration 10.0 uM
[26] = target: Misshapen-like kinase 1 (Homo sapiens) (UniProt Q8N4C8); assay: misshapen-like kinase 1 Millipore kinase panel; conditions: Compound concentration 10.0 uM
[27] = target: Serine/threonine-protein kinase haspin (Homo sapiens) (UniProt Q8TF76); assay: germ cell associated 2 (haspin) Millipore kinase panel; conditions: Compound concentration 10.0 uM
[28] = target: D(2) dopamine receptor (Homo sapiens) (UniProt P14416); assay: hD2S Cerep panel; conditions: Compound concentration 10.0 uM
[29] = target: Neuromedin-K receptor (Homo sapiens) (UniProt P29371); assay: hNK3 Cerep panel; conditions: Compound concentration 10.0 uM
[30] = target: P2X receptor (Rattus norvegicus) (UniProt P51579+P49653+P51578+Q64663+P47824+P51577+P49654); assay: rP2X Cerep panel; assay type: protein assay; conditions: Compound concentration 10.0 uM
[31] = target: Mitogen-activated protein kinase kinase kinase 7 (Homo sapiens) (UniProt O43318); assay: mitogen-activated protein kinase kinase kinase 7 Millipore kinase panel; conditions: Compound concentration 10.0 uM
[32] = target: Tyrosine-protein kinase Fyn (Homo sapiens) (UniProt P06241); assay: FYN oncogene related to SRC, FGR, YES Millipore kinase panel; conditions: Compound concentration 10.0 uM
[33] = target: Serine/threonine-protein kinase 3 (Homo sapiens) (UniProt Q13188); assay: serine/threonine kinase 3 Millipore kinase panel; conditions: Compound concentration 10.0 uM
Rattus norvegicus = species on record: Rattus norvegicus; assay: rK_ATP potassium channel Cerep panel; conditions: Compound concentration 10.0 uM
[34] = target: Vasoactive intestinal polypeptide receptor 1 (Homo sapiens) (UniProt P32241); assay: hVPAC1 Cerep panel; conditions: Compound concentration 10.0 uM
[35] = target: RAC-gamma serine/threonine-protein kinase (Homo sapiens) (UniProt Q9Y243); assay: v-akt murine thymoma viral oncogene homolog 3 Millipore kinase panel; conditions: Compound concentration 10.0 uM
[36] = target: Androgen receptor (Homo sapiens) (UniProt P10275); assay: hAR Cerep panel; conditions: Compound concentration 10.0 uM
[37] = target: Mitogen-activated protein kinase 1 (Homo sapiens) (UniProt P28482); assay: mitogen-activated protein kinase 1 (MAPK2) Millipore kinase panel; conditions: Compound concentration 10.0 uM
[38] = target: G protein-coupled receptor kinase 5 (Homo sapiens) (UniProt P34947); assay: G protein-coupled receptor kinase 5 Millipore kinase panel; conditions: Compound concentration 10.0 uM
[39] = target: 5-hydroxytryptamine receptor 1E (Homo sapiens) (UniProt P28566); conditions: Compound concentration 10.0 uM
[40] = target: Alpha-2A adrenergic receptor (Homo sapiens) (UniProt P08913); conditions: Compound concentration 10.0 uM

Proto-oncogene tyrosine-protein kinase receptor Ret (Homo sapiens), sequence (P07949 whole entry): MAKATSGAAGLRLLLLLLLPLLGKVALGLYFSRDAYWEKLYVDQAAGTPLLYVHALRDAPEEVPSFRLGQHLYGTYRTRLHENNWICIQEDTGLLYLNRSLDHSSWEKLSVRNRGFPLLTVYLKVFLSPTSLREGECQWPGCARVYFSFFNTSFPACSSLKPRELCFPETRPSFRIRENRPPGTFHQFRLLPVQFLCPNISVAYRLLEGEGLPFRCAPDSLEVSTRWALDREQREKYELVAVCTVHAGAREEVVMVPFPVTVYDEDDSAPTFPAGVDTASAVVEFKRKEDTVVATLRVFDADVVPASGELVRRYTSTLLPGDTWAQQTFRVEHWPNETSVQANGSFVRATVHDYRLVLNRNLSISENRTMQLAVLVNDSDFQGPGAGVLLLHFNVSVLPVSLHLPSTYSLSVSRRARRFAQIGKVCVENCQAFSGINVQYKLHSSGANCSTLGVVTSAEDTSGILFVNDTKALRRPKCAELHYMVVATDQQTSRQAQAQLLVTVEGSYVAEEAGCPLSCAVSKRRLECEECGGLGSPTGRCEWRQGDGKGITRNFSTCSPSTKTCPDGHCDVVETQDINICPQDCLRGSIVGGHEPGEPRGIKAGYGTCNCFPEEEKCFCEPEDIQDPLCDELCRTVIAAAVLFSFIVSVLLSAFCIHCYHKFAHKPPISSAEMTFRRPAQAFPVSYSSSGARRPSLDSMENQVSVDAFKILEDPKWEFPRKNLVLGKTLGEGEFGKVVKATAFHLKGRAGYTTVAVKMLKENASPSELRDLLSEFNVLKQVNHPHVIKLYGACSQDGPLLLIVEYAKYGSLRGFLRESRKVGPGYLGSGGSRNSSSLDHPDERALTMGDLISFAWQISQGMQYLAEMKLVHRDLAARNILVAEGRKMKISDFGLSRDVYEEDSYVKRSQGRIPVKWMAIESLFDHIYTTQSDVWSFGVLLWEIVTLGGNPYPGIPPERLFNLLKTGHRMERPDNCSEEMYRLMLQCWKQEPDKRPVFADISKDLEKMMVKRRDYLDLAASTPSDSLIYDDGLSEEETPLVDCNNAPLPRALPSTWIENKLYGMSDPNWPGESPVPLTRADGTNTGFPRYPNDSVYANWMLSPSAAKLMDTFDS
Rhodopsin kinase GRK7 (Homo sapiens), sequence (Q8WTQ7 whole entry): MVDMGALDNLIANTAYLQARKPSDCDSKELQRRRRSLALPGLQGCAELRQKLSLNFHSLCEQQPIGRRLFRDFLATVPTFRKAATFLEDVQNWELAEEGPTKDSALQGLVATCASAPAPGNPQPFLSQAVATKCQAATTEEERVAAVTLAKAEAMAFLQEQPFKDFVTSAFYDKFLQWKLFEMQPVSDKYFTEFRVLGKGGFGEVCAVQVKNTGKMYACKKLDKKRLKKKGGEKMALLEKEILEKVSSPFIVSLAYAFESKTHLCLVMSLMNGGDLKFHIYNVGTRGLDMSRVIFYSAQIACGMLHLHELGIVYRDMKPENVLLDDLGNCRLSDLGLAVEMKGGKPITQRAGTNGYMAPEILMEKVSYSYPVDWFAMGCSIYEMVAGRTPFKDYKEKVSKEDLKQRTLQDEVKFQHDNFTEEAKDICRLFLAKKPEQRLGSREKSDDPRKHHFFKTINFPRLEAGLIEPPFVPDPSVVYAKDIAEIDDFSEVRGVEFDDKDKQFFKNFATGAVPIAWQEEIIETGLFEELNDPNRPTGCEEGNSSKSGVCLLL
Nociceptin receptor (Homo sapiens), sequence (P41146 whole entry): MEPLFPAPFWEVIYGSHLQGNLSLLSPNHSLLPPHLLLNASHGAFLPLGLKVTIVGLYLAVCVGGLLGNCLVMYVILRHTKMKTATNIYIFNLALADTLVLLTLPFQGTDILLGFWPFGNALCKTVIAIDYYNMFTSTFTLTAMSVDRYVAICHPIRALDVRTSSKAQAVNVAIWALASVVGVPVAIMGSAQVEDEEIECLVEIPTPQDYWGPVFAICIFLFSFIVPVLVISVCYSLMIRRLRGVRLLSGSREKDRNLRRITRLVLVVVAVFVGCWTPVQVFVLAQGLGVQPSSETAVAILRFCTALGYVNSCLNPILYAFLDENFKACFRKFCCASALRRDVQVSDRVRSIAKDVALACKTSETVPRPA
Neuropeptide Y receptor type 1 (Homo sapiens), sequence (P25929 whole entry): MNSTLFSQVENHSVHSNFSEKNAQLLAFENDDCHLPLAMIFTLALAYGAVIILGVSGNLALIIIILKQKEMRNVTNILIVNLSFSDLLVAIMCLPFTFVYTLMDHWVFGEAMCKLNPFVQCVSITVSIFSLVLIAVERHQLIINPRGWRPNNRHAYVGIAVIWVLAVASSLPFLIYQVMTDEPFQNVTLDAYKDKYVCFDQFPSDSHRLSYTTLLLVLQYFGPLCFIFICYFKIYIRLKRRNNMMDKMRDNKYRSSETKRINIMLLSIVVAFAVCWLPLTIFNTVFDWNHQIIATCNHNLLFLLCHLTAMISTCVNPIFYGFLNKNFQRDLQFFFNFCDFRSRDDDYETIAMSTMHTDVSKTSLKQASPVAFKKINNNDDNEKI
Substance-P receptor (Homo sapiens), sequence (P25103 whole entry): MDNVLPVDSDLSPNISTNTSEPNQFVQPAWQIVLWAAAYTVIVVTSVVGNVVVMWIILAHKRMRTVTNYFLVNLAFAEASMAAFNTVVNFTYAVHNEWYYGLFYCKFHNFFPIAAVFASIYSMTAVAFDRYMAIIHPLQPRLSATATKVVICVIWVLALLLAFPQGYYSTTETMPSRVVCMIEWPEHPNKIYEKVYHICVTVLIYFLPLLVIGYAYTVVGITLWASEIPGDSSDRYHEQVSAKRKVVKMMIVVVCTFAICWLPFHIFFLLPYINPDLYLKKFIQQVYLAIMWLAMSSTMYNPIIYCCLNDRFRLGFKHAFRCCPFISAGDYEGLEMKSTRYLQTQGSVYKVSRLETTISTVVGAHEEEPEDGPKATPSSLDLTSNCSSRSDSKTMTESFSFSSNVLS
Mitogen-activated protein kinase kinase kinase 7 (Homo sapiens), sequence (O43318 whole entry): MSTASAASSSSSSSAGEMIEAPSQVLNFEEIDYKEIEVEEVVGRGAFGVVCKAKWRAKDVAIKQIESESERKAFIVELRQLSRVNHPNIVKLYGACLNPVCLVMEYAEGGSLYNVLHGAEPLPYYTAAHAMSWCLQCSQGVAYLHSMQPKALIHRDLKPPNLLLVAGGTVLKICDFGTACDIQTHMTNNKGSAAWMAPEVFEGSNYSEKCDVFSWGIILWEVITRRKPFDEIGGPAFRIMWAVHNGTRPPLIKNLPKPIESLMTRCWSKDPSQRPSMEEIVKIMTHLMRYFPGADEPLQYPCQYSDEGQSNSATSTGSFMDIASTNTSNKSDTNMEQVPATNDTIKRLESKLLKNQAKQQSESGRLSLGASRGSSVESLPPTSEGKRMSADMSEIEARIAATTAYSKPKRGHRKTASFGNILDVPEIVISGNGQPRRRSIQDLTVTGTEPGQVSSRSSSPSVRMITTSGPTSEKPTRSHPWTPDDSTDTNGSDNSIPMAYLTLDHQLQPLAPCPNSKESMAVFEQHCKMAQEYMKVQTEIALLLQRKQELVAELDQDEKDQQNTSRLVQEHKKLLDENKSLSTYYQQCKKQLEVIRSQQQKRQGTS
PAS domain-containing serine/threonine-protein kinase (Homo sapiens), sequence (Q96RG2 whole entry, the tested form may be a part): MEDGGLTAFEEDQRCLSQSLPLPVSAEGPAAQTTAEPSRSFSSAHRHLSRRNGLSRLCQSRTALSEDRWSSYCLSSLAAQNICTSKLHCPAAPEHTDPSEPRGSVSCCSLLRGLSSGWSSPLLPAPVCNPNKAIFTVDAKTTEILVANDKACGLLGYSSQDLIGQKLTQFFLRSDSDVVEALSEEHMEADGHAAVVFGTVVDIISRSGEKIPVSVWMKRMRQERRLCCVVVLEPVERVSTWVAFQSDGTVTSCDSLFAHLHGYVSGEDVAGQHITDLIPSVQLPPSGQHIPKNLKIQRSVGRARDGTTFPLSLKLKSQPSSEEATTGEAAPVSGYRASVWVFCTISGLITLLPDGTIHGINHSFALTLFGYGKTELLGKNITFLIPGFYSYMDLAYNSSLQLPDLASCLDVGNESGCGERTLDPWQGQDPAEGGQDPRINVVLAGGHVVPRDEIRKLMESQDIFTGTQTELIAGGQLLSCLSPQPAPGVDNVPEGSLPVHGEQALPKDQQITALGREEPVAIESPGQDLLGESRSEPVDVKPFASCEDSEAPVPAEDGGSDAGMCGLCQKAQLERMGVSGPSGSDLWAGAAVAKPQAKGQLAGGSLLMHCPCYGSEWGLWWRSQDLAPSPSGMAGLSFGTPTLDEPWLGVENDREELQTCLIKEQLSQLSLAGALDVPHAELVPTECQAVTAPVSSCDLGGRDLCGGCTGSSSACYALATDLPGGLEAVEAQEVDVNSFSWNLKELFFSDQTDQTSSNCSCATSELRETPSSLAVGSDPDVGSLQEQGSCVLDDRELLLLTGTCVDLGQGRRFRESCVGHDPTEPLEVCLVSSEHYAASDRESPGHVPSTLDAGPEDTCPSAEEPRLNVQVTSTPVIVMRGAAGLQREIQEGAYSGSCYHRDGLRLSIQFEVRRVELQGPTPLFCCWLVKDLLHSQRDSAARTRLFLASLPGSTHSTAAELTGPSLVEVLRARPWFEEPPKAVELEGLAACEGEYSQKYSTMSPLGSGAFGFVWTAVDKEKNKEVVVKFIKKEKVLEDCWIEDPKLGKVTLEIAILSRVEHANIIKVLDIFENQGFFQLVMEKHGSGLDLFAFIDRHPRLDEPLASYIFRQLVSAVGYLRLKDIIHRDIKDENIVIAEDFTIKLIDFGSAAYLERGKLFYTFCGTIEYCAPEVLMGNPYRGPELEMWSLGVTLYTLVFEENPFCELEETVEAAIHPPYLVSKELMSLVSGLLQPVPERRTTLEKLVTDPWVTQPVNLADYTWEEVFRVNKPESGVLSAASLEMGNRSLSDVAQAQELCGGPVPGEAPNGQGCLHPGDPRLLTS

For `COCCc1ccc(-c2c(C)nc3c(N4CCOCC4)ccnn23)cn1` [JNJ-42396302], the inhibition [1] was 4%, the effect [2] was 6.2% and the inhibition [3] was -2%. It also gave an effect [4] of 0.15%, an inhibition [5] of -1% and an inhibition [6] of -7%. It also gave an inhibition [7] of -3%, an inhibition [8] of 5% and an effect [9] of 14.4%. It also gave an inhibition [10] of 2%, an inhibition [11] of 5% and an inhibition [12] of 5%. For the same compound, the inhibition [13] was -7%, the inhibition [14] was -1% and the effect [15] was 12.3%. The inhibition [16] was 6%, the inhibition [17] was 1% and the inhibition [18] was 9%. The effect [19] was 8.9%, the effect [20] was 4.05% and the Ki [21] was 2200 nM. For the same compound, the effect [22] was -7.45%, the effect [23] was 2.15% and the effect [24] was 2.05%. It also gave an effect [25] of 3.05%, an inhibition [26] of 9% and an inhibition [27] of 5%. It also gave an effect [28] of 1.7%, an effect [29] of -8.65% and an effect [30] of 6.95%. The inhibition [31] was 5%, the inhibition [32] was 3% and the inhibition [33] was -8%. The effect (Rattus norvegicus) was 2.9%, the effect [34] was 2.05% and the inhibition [35] was 24%. For the same compound, the effect [36] was -13.8%, the inhibition [37] was 4% and the inhibition [38] was -4%.
Compound `c1ccc(C2CCN(c3cnc4c(N5CCOCC5)nccn34)CC2)cc1` has an inhibition [39] of 5.84% and an inhibition [40] of 34.6%.
